Laboratory results from patent publication US20250109126A1, “DIHYDRO-OXAZOL DERIVATIVE COMPOUNDS” (AC IMMUNE SA, priority 2021, published 2025).
Read-outs that look alike come from different tables or passages of the source.

Test system: NLRP3 inflammasome pathway
Experiment: NLRP3 inflammasome pathway activation assay, IL-1β release (HTRF) in human monocyte-like cells stimulated with MSU or Nigericin
Format: cell-based
Experimental: The following assays were used to determine the inhibitory activity of test compounds on the NLRP3 inflammasome pathway using common stimuli Nigericin (Invivogen) or monosodium urate crystals (MSU) (Invivogen).
Human monocyte-like cells were cultured in RPMI-1640 Glutamax medium supplemented with 10% heat inactivated FCS and 50 U/ml penicillin-streptomycin (Life Technologies).
Human monocyte-like cells were seeded at 75000 per well in a 96-well plate and were differentiated overnight into macrophages with 10 ng/ml PMA (Phorbol Myristate Acetate). The following day, medium containing 10 ng/ml LPS (Lipopolysaccharide) were added. After 3 hours of LPS priming, concentrations of test compound in the range from 100 μM to 6 nM were added 30 min prior to NLRP3 inflammasome pathway stimulation with Nigericin 3.75 μM or MSU 200 μg/ml for 3 h.
For IL-1β quantification, supernatants were analyzed using HTRF kit according to the manufacturer's instructions (Cisbio 62HIL1BPEH). Briefly, in a 384-well ProxiPlate™ microplate, 8 μl of sample was mixed, with 4 μl of Anti-IL1β Cryptate antibody (40×) and Anti-IL1β XL antibody (40×). Then, incubated overnight at RT. Reading was done using an EnVision Reader (PerkinElmer).
IC50 (concentration corresponding to 50% inhibition) were determined using GraphPad Prism 8.

[1] = Homo sapiens, 3 h, IL-1β release, PMA-differentiated, LPS-primed cells, MSU 200 μg/ml for 3 h, read-out: IC50 Human monocyte-like cells MSU
[2] = Homo sapiens, 3 h, read-out: IC50 Human monocyte-like cells Nigericin (μM)
[3] = IL-1β release, PMA-differentiated, LPS-primed cells, MSU 200 μg/ml for 3 h, read-out: IC50 Human monocyte-like cells MSU

Compound	IC50 [1] [µM]	further results
CCOC(=O)C1(c2ccon2)CN=C(Nc2c(-c3ccnc(OC)c3)cc(F)cc2C(C)C)O1 (racemic) [Example 1, ethyl 2-{[4-fluoro-2-(2-methoxypyridin-4-yl)-6-(propan-2-yl)phenyl]amino}-5-(1,2-oxazol-3-yl)-4,5-dihydro-1,3-oxazole-5-carboxylate]	< 1	–
CCOC(=O)C1(c2ccon2)CN=C(Nc2c(-c3ccnc(OC)c3)ccc3c2CCC3)O1 (racemic) [Example 4, ethyl 2-{[5-(2-methoxypyridin-4-yl)-2,3-dihydro-1H-inden-4-yl]amino}-5-(1,2-oxazol-3-yl)-4,5-dihydro-1,3-oxazole-5-carboxylate]	< 1	–
CCOC(=O)C1(c2ccon2)CN=C(Nc2c3c(c(C)c4c2CCC4)CCC3)O1 (racemic) [Example 7, ethyl 5-(isoxazol-3-yl)-2-((8-methyl-1,2,3,5,6,7-hexahydro-s-indacen-4-yl)amino)-4,5-dihydrooxazole-5-carboxylate]	< 1	–
COc1cc(-c2ccc3c(c2NC2=NCC(C(=O)O)(c4ccon4)O2)CCC3)ccn1 (racemic) [Example 12, 2-{[5-(2-methoxypyridin-4-yl)-2,3-dihydro-1H-inden-4-yl]amino}-5-(1,2-oxazol-3-yl)-4,5-dihydro-1,3-oxazole-5-carboxylic acid]	1 to 10	–
CCOC(=O)C1(c2ccon2)CN=C(Nc2c(-c3ccnc(OC)c3)ccc3c2CCO3)O1 (racemic) [Example 17, ethyl 5-(isoxazol-3-yl)-2-((5-(2-methoxypyridin-4-yl)-2,3-dihydrobenzofuran-4-yl)amino)-4,5-dihydrooxazole-5-carboxylate]	< 1	–
CCOC(=O)C1(c2ccon2)CN=C(Nc2c(-c3ccncc3)cc(F)cc2C(C)C)O1 (racemic) [Example 18, ethyl 2-((4-fluoro-2-isopropyl-6-(pyridin-4-yl)phenyl)amino)-5-(isoxazol-3-yl)-4,5-dihydrooxazole-5-carboxylate]	< 1	–
CCOC(=O)C1(c2ccon2)CN=C(Nc2c(-c3ccnc(OC)c3)cc(F)c3c2CCC3)O1 (racemic) [Example 19, ethyl 2-((7-fluoro-5-(2-methoxypyridin-4-yl)-2,3-dihydro-1H-inden-4-yl)amino)-5-(isoxazol-3-yl)-4,5-dihydrooxazole-5-carboxylate]	< 1	–
CCOC(=O)C1(c2ccon2)CN=C(Nc2c3c(cc(C)c2-c2ccnc(OC)c2)CCC3)O1 (racemic) [Example 20, ethyl 5-(isoxazol-3-yl)-2-((5-(2-methoxypyridin-4-yl)-6-methyl-2,3-dihydro-1H-inden-4-yl)amino)-4,5-dihydrooxazole-5-carboxylate]	< 1	–
CCOC(=O)C1(c2ccon2)CN=C(Nc2c3c(c(C(F)(F)F)c4c2CCC4)CCC3)O1 (racemic) [Example 21, ethyl 5-(isoxazol-3-yl)-2-((8-(trifluoromethyl)-1,2,3,5,6,7-hexahydro-s-indacen-4-yl)amino)-4,5-dihydrooxazole-5-carboxylate]	1 to 10	IC50 [2]: < 1 µM
CCOC(=O)C1(c2ccon2)CN=C(Nc2c(C(C)C)cc(F)cc2C(C)C)O1 (racemic) [Example 23, ethyl 2-((4-fluoro-2,6-diisopropylphenyl)amino)-5-(isoxazol-3-yl)-4,5-dihydrooxazole-5-carboxylate]	1 to 10	–
CCOC(=O)C1(c2ccon2)CN=C(Nc2c(-c3ccnc(OC)c3)cc(F)cc2C(C)C)O1 (single isomer, unassigned) [Example 2, ethyl 2-{[4-fluoro-2-(2-methoxypyridin-4-yl)-6-(propan-2-yl)phenyl]amino}-5-(1,2-oxazol-3-yl)-4,5-dihydro-1,3-oxazole-5-carboxylate]	< 1	–
CCOC(=O)C1(c2ccon2)CN=C(Nc2c(-c3ccnc(OC)c3)cc(F)cc2C(C)C)O1 (single isomer, unassigned) [Example 3, ethyl 2-{[4-fluoro-2-(2-methoxypyridin-4-yl)-6-(propan-2-yl)phenyl]amino}-5-(1,2-oxazol-3-yl)-4,5-dihydro-1,3-oxazole-5-carboxylate]	–	IC50 [3]: 1 to 10 µM
CCOC(=O)C1(c2ccon2)CN=C(Nc2c3c(c(-c4ccccc4)c4c2CCC4)CCC3)O1 (single isomer, unassigned) [Example 9, ethyl 5-(isoxazol-3-yl)-2-((8-phenyl-1,2,3,5,6,7-hexahydro-s-indacen-4-yl)amino)-4,5-dihydrooxazole-5-carboxylate]	–	IC50 [2]: 1 to 10 µM; IC50 [3]: < 1 µM
COc1cc(-c2cc(F)cc(C(C)C)c2NC2=NCC(C(=O)O)(c3ccon3)O2)ccn1 (single isomer, unassigned) [Example 11, 2-{[4-fluoro-2-(2-methoxypyridin-4-yl)-6-(propan-2-yl)phenyl]amino}-5-(1,2-oxazol-3-yl)-4,5-dihydro-1,3-oxazole-5-carboxylic acid]	< 1	IC50 [2]: 1 to 10 µM
Cc1c2c(c(NC3=NCC(C(=O)O)(c4ccon4)O3)c3c1CCC3)CCC2 (single isomer, unassigned) [Example 15, 2-[(8-methyl-1,2,3,5,6,7-hexahydro-s-indacen-4-yl)amino]-5-(1,2-oxazol-3-yl)-4,5-dihydro-1,3-oxazole-5-carboxylic acid]	1 to 10	–
CCOC(=O)C1(c2ccon2)CN=C(Nc2c3c(c(-c4ccccc4)c4c2CCC4)CCC3)O1 (single isomer, unassigned) [Example 16, ethyl 5-(isoxazol-3-yl)-2-((8-phenyl-1,2,3,5,6,7-hexahydro-s-indacen-4-yl)amino)-4,5-dihydrooxazole-5-carboxylate]	–	IC50 [3]: 10 to 30 µM; IC50 (read-out: IC50 Human monocyte-like cells Nigericin, IL-1β release, PMA-differentiated, LPS-primed cells, Nigericin 3.75 μM for 3 h): 1 to 10 µM
COc1cc(-c2cc(F)cc(C(C)C)c2NC2=NCC(C(=O)O)(c3ccon3)O2)ccn1 (stereo not shown) [Example 10, 2-{[4-fluoro-2-(2-methoxypyridin-4-yl)-6-(propan-2-yl)phenyl]amino}-5-(1,2-oxazol-3-yl)-4,5-dihydro-1,3-oxazole-5-carboxylic acid]	< 1	–
COc1cc(-c2ccc3c(c2NC2=NCC(C(=O)O)(c4ccon4)O2)CCC3)ccn1 (stereo not shown) [Example 13, 2-{[5-(2-methoxypyridin-4-yl)-2,3-dihydro-1H-inden-4-yl]amino}-5-(1,2-oxazol-3-yl)-4,5-dihydro-1,3-oxazole-5-carboxylic acid]	< 1	IC50 [2]: 10 to 30 µM
Cc1c2c(c(NC3=NCC(C(=O)O)(c4ccon4)O3)c3c1CCC3)CCC2 (stereo not shown) [Example 14, 2-[(8-methyl-1,2,3,5,6,7-hexahydro-s-indacen-4-yl)amino]-5-(1,2-oxazol-3-yl)-4,5-dihydro-1,3-oxazole-5-carboxylic acid]	1 to 10	–
COc1cc(-c2ccc3c(c2NC2=NCC(C(=O)O)(c4ccon4)O2)CCO3)ccn1 (stereo not shown) [Example 24, 5-(isoxazol-3-yl)-2-((5-(2-methoxypyridin-4-yl)-2,3-dihydrobenzofuran-4-yl)amino)-4,5-dihydrooxazole-5-carboxylic acid]	1 to 10	–
CC(C)c1cc(F)cc(-c2ccncc2)c1NC1=NCC(C(=O)O)(c2ccon2)O1 (stereo not shown) [Example 25, 2-((4-fluoro-2-isopropyl-6-(pyridin-4-yl)phenyl)amino)-5-(isoxazol-3-yl)-4,5-dihydrooxazole-5-carboxylic acid]	1 to 10	–
COc1cc(-c2cc(F)c3c(c2NC2=NCC(C(=O)O)(c4ccon4)O2)CCC3)ccn1 (stereo not shown) [Example 26, 2-((7-fluoro-5-(2-methoxypyridin-4-yl)-2,3-dihydro-1H-inden-4-yl)amino)-5-(isoxazol-3-yl)-4,5-dihydrooxazole-5-carboxylic acid]	1 to 10	–
COc1cc(-c2c(C)cc3c(c2NC2=NCC(C(=O)O)(c4ccon4)O2)CCC3)ccn1 (stereo not shown) [Example 27, 5-(isoxazol-3-yl)-2-((5-(2-methoxypyridin-4-yl)-6-methyl-2,3-dihydro-1H-inden-4-yl)amino)-4,5-dihydrooxazole-5-carboxylic acid]	< 1	IC50 [2]: 1 to 10 µM
O=C(O)C1(c2cnoc2)CN=C(Nc2c3c(c(-c4ccccc4)c4c2CCC4)CCC3)O1 (stereo not shown) [Example 28, lithium 5-(isoxazol-4-yl)-2-((8-phenyl-1,2,3,5,6,7-hexahydro-s-indacen-4-yl)amino)-4,5-dihydrooxazole-5-carboxylate]	–	IC50 (Homo sapiens, 3 h, read-out: IC50 Human monocyte-like cells MSU (μM)): 10 to 30 µM; IC50 [2]: 10 to 30 µM
